From a melting point compilation (Tetko et al.; mined from patent text by program, amines drawn as free bases though some values may be those of a salt) come the findings set out here.

On to `CCNc1nc(Cl)ccc1C(=O)O`, for which the melting point (in general, the temperature of the solid-liquid transition) lay in the range of 158 to 160 °C. Consider `CC(C)(C)c1ccccc1C(O)(c1ccccc1)c1ncc[nH]1` (configuration not stated), for which the melting point was 185 to 186 °C.

`CC(C)(C)S(=O)C1CC(=O)N1CC(=O)CCc1ccccc1` (configuration not stated) had a melting point of 79 to 81 °C.

Molecule `Cc1on(C(=O)N(c2ccc(Cl)cc2)C(C)C)c(=O)c1Cl` gave a melting point of 136 to 137 °C. To `CCOC(=O)c1nc2oc(C)c(C)c2c(=O)[nH]1` belongs 180 to 182 °C; to `CS(=O)(=O)c1ccc(-c2cnn(CC(F)(F)F)c(=O)c2Cl)cc1`, 221 to 222 °C; to `ClCc1cccc(-c2nnn[nH]2)c1`, 152 to 154 °C. In turn, `Cc1c(C(=O)O)c(=O)cc(-c2ccccc2)n1C` came in with a melting point of 220 to 225 °C.

With `Nc1nc2c(ncn2OCCCCP(=O)(O)O)c(=O)[nH]1`, the melting point was found to be 208 °C.

`CCOC(=O)COc1cccc2c1OCCC2=O` showed a melting point of 56 to 66 °C.

Take `CN1C(=O)C(C)(C)N=C(c2ccccc2Cl)c2cc([N+](=O)[O-])cc(Cl)c21`: the melting point turned out to be 254 °C. Regarding `O=C(O)CCCSc1ccc(C(=O)O)cn1`, the melting point turned out to be 185 °C. With `COC(=O)c1c(Oc2ccc(Cl)cc2N)c2ccccc2n1Cc1ccccc1`, the melting point was 121 to 123 °C. `CC(C)(C)[Si](C)(C)Oc1ccccc1-c1cc(-c2cccc([N+](=O)[O-])c2)c(C#N)c(NC(=O)c2ccsc2)n1` gave a melting point of 139 to 142 °C. The molecule `CC(C)(C)c1ccc2sc3cc(-c4nnn[nH]4)ccc3c(=O)c2c1` returned a melting point of 277 °C. Consider `O=c1[nH]c2cc(Cl)ccc2n1-c1cc(Cl)ccc1O`, for which the melting point was 256 to 257 °C. With `CCCCc1nc(Cl)c(COC)n1Cc1ccc(-c2ccccc2Cc2nnn[nH]2)cc1`, the melting point was 149 to 152 °C. With `C=CCCO[C@@H](Cc1ccc(OCCc2nc(-c3ccc(C(C)C)cc3)oc2C)c2ccsc12)C(=O)O`, the melting point lay in the range of 124 to 126 °C.

The molecule `CCOC(=O)c1c(O)nc2c(C(F)(F)F)cccc2c1O` displayed a melting point of 190 °C. For the molecule `CC1(C(=O)N2CCC(n3c(=O)[nH]c4ccccc43)CC2)OCc2ccccc2-n2cccc21` (configuration not stated), the melting point was 208 to 210 °C.

As to `C=Cc1ccc(CC(=O)O)cc1`, the melting point turned out to be 94 °C. `CC(C)(C)OC(=O)NC[C@H]1C[C@H]1CON1C(=O)c2ccccc2C1=O` (relative stereo) displayed a melting point of 96 to 97 °C.

Turning to `COc1cccc(-c2c(Cl)c(CN3CCCCC3)nc3sc4c(c23)CCN(Cc2ccccc2)C4)c1OC`, the melting point was 173 to 174 °C. `CS(=O)(=O)OCCNC(=O)C(O)C(Oc1ccccc1[N+](=O)[O-])c1ccccc1` (configuration not stated) registered a melting point of 122 to 125 °C.

With `COc1ccc(OCC(O)CCCl)cc1` (configuration not stated), the melting point lay within 65 to 68 °C. As for `COc1cccc([C@H]2O[C@H](CC(=O)Nc3ccc4oc(C(=O)O)c(OC(C)C)c4c3)C(=O)N(CC(C)(C)CO)c3ccc(Cl)cc32)c1OC`, the melting point was 174 to 175 °C.

`CC(C)(C)c1ccc(-c2c(Cl)c(CCl)nc3sc4c(c23)CCN(Cc2ccccc2)C4)cc1` yielded a melting point of 208 to 209 °C. Turning to `COc1ccc2c(c1)C(=O)c1ccccc1C2`, the melting point was 94.5 to 97.5 °C. For the molecule `CSc1nn2c(N3CCN(C)CC3)ccnc2c1S(=O)(=O)c1ccccc1`, the melting point was in the range of 107 to 109 °C. `CCCOc1cc(CCCOc2c(CC(=O)O)cccc2OC)n(Cc2ccc(F)cc2F)n1` displayed a melting point of 77 to 80 °C. To `CC(C)(C)OC(=O)N1CCC(Nc2cccc(NC(=O)c3ccc(F)cc3Cl)n2)CC1` belongs 82 °C; to `O=C1CCC(N2C(=O)c3cccc(NCC(=O)NC4CC4)c3C2=O)C(=O)N1` (configuration not stated), 240 to 242 °C; to `Cc1ccc(CC(N)=O)cn1`, 175 to 177 °C. Take `O=C(NCCc1c[nH]c2ccccc12)OCC1CC1`: the melting point was in the range of 88 to 90 °C. With `CCC(=O)OC(C)c1ccc(-c2ccc(C(=O)O)cc2)cc1` (single isomer, unassigned; (+)), the melting point was 175 to 176 °C.

Consider `Cc1cc(Cl)ccc1OCC(=O)N1Cc2cccn2Cc2ccccc21`, for which the melting point was 166 to 167 °C. Turning to `Cc1ccc(N2CCN(CCCN3c4cccc5cccc(c45)S3(=O)=O)CC2)cc1`, the melting point turned out to be 136 °C. As for `Cn1ncc(C(=O)N2CCC2)c1C(=O)Nc1ccn2nc(-c3ccnc(F)c3)nc2c1`, the figure is over 280 °C; as for `CCOC(=O)/C=C/C(=O)N1C[C@H](NC(=O)OCc2ccccc2)C1=O`, 68 °C. `CN(C)C(=O)N1Cc2c(-c3noc(C4CC4)n3)ncn2-c2ccc(Cl)cc21`: the melting point was 254 to 256 °C. The molecule `COc1cc2c(cc1OC)NC(=O)N(CCCN(C)CCCSc1ccccc1)CC2` yielded a melting point of 107 to 110 °C. `O=C1CCC2=C(c3ccccc3)c3cc(Cl)ccc3C2N1` (configuration not stated) showed a melting point of 234 to 238 °C. The molecule `COC1CC(C)(C)C(O)C(OC(=O)c2ccccc2)C=C1C` (configuration not stated) displayed a melting point of 98 to 99 °C. In turn, `COc1ccc(-c2cc(C3CCN(C(=O)c4ccccc4)CC3)nc(N)n2)cc1` had a melting point of 165 to 166 °C. In turn, `COc1cn(-c2ccc(C3CCOCC3)cc2F)nc(-c2ccnn2-c2ccccc2)c1=O` returned a melting point of 187 to 189 °C. As for `OCCc1cc(C(O)CNCCCCCOCCCCc2ccccc2)ccc1O` (configuration not stated), the figure is 65 to 67 °C.

The molecule `CC1CN(c2cccc(Cl)n2)N=C1N` (configuration not stated) showed a melting point of 175 to 176 °C. Regarding `CCOC(=O)CCCCCCCCCCSc1nc(-c2ccccc2)c(-c2ccccc2)[nH]1`, the melting point fell in the range of 57 to 59 °C.

For the molecule `CC(NC(=O)C1C(CO)N(Cc2ccccc2)C(=O)N1Cc1ccccc1)c1ccc2ccccc2c1` (configuration not stated), the melting point is 170 to 175 °C.

For `CCN1c2ccc(C#N)cc2N(CCCCS(=O)(=O)O)C1C` (configuration not stated), the melting point was over 260 °C. With `NS(=O)(=O)c1cc(C(=O)O)cc(SCc2ccccc2)c1Oc1ccccc1`, the melting point was in the range of 235 to 236 °C.

`CCc1[nH]n(C2CCCC2)c2nc(Cc3ccc(C(F)(F)F)cc3)nc(=O)c1-2` came in with a melting point of 212 to 213 °C. For the molecule `O=C(O)Cc1c(C(=O)c2ccccc2)[nH]c2c(Cl)cccc12`, the melting point was in the range of 190 to 193 °C. As for `COc1c(I)cc(-c2c3ccccc3cc3sc4ccccc4c23)cc1I`, the figure is 228 to 230 °C. `N#CC1CN1C(=O)CNC(N)=O` (configuration not stated) showed a melting point of 110 to 114 °C. Molecule `COC(=O)CCC(=O)c1cc(NC(C)=O)ccc1OCC1CO1` (configuration not stated) returned a melting point of 84 to 87 °C. In the case of `CCCCn1c(=O)c(NC(=O)Nc2c(C(C)C)cccc2C(C)C)c(-c2cccc(CCCO)c2)c2cccnc21`, the melting point fell in the range of 188 to 189 °C.

Turning to `C[C@H](CI)[C@H]1CC[C@H]2[C@@H](O[Si](C)(C)C(C)(C)C)CCC[C@]12C`, the melting point was in the range of 40 to 41 °C. For the molecule `CCCCCCCCCCS(=O)(=O)c1ccc(O)c(C(=O)Nc2cccc(C(F)(F)F)c2)c1`, the melting point lay within 108 to 109 °C.

`O=[N+]([O-])c1ccc(OCCc2c[nH]cn2)cc1` yielded a melting point of 197 to 200 °C. Molecule `C=CCN1CCC23c4c5ccc(O)c4OC2C(=NO)CCC3(O)C1C5` (configuration not stated) showed a melting point of 119 °C.

The molecule `COc1cc2cc3c(Nc4ccc(Sc5nccn5C)c(Cl)c4)c(C#N)cnc3cc2cc1O` yielded a melting point of over 300 °C.
